These compounds were tested on HEK293 cells (assay: Preliminary screening as DNA vectors, GFP transfection of HEK293 cells). Conditions: amino lipid/DOPE liposome with 75 ng plasmid DNA (psin-EGFP-IRES-Puro); number of GFP-expressing cells divided by total nuclei (Hoechst).
Format: cell-based
Outline: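 Lipid + DOPE liposomes (NaOAc, pH 5.6) complexed w/ 75 ng psin-EGFP-IRES-Puro, 30 min RT; added to 3-5×10^4 HEK293/well, 37° C. Hoechst 0.2 μg/mL at 20-24 h, imaged after further 20-24 h. Efficiency = GFP+ cells / total nuclei.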

Row | Structure (SMILES) | Absolute DNA transfection efficiency in HEK293 cells
1 | CCCCCCCCCCCSc1nc(NCCCCCCC)nc(NCCN2CCN(C)CC2)n1 [S11N7 D5] | 22.8%
2 | CCCCCCCCCCCSc1nc(NCCCCCCC)nc(NCCCN(C)C)n1 [S11N7 D6] | 34.0%
3 | CCCCCCCCCCCSc1nc(NCCCCCCC)nc(NCCN(CC)CC)n1 [S11N7 D7] | 11.6%
4 | CCCCCCCCCCCSc1nc(NCCCCCCC)nc(NCCCN2CCOCC2)n1 [S11N7 D8] | 13.4%
5 | CCCCCCCCCCCSc1nc(NCCCCCCC)nc(NCCCN2CCN(C)CC2)n1 [S11N7 D9] | 16.1%
6 | CCCCCCCCCCCSc1nc(NCCCCCCC)nc(NCC2CCN(C)CC2)n1 [S11N7 D10] | 28.5%
7 | CCCCCCCCCCCSc1nc(NCCCCCCCC)nc(NCCN(C)C)n1 [S11N8 D1] | 19.8%
8 | CCCCCCCCCCCSc1nc(NCCCCCCCC)nc(NCCN2CCOCC2)n1 [S11N8 D2] | 18.6%
9 | CCCCCCCCCCCSc1nc(NCCCCCCCC)nc(NCCN2CCCC2)n1 [S11N8 D3] | 26.0%
10 | CCCCCCCCCCCSc1nc(NCCCCCCCC)nc(NCCN2CCCCC2)n1 [S11N8 D4] | 5.9%
11 | CCCCCCCCCCCSc1nc(NCCCCCCCC)nc(NCCN2CCN(C)CC2)n1 [S11N8 D5] | 19.3%
12 | CCCCCCCCCCCSc1nc(NCCCCCCCC)nc(NCCCN(C)C)n1 [S11N8 D6] | 36.9%
13 | CCCCCCCCCCCSc1nc(NCCCCCCCC)nc(NCCN(CC)CC)n1 [S11N8 D7] | 10.1%
14 | CCCCCCCCCCCSc1nc(NCCCCCCCC)nc(NCCCN2CCOCC2)n1 [S11N8 D8] | 12.2%
15 | CCCCCCCCCCCSc1nc(NCCCCCCCC)nc(NCCCN2CCN(C)CC2)n1 [S11N8 D9] | 23.6%
16 | CCCCCCCCCCCSc1nc(NCCCCCCCC)nc(NCC2CCN(C)CC2)n1 [S11N8 D10] | 33.4%
17 | CCCCCCCCCCCSc1nc(NCCCCCCCCC)nc(NCCN(C)C)n1 [S11N9 D1] | 12.1%
18 | CCCCCCCCCCCSc1nc(NCCCCCCCCC)nc(NCCN2CCOCC2)n1 [S11N9 D2] | 13.6%
19 | CCCCCCCCCCCSc1nc(NCCCCCCCCC)nc(NCCN2CCCC2)n1 [S11N9 D3] | 23.1%
20 | CCCCCCCCCCCSc1nc(NCCCCCCCCC)nc(NCCN2CCCCC2)n1 [S11N9 D4] | 1.1%
21 | CCCCCCCCCCCSc1nc(NCCCCCCCCC)nc(NCCN2CCN(C)CC2)n1 [S11N9 D5] | 20.5%
22 | CCCCCCCCCCCSc1nc(NCCCCCCCCC)nc(NCCCN(C)C)n1 [S11N9 D6] | 40.1%
23 | CCCCCCCCCCCSc1nc(NCCCCCCCCC)nc(NCCN(CC)CC)n1 [S11N9 D7] | 2.0%
24 | CCCCCCCCCCCSc1nc(NCCCCCCCCC)nc(NCCCN2CCOCC2)n1 [S11N9 D8] | 8.6%

Row | Structure (SMILES) | Absolute DNA transfection efficiency in HEK293 cells
25 | CCCCCCCCCCCSc1nc(NCCCCCCCCC)nc(NCCCN2CCN(C)CC2)n1 [S11N9 D9] | 22.4%
26 | CCCCCCCCCCCSc1nc(NCCCCCCCCC)nc(NCC2CCN(C)CC2)n1 [S11N9 D10] | 32.5%
27 | CCCCCCCCCCCNc1nc(NCCN(C)C)nc(SCCCCCCCCCCC)n1 [S11N11 D1] | 17.8%
28 | CCCCCCCCCCCNc1nc(NCCN2CCOCC2)nc(SCCCCCCCCCCC)n1 [S11N11 D2] | 6.3%
29 | CCCCCCCCCCCNc1nc(NCCN2CCCC2)nc(SCCCCCCCCCCC)n1 [S11N11 D3] | 23.4%
30 | CCCCCCCCCCCNc1nc(NCCN2CCCCC2)nc(SCCCCCCCCCCC)n1 [S11N11 D4] | 1.0%
31 | CCCCCCCCCCCNc1nc(NCCN2CCN(C)CC2)nc(SCCCCCCCCCCC)n1 [S11N11 D5] | 10.1%
32 | CCCCCCCCCCCNc1nc(NCCCN(C)C)nc(SCCCCCCCCCCC)n1 [S11N11 D6] | 22.8%
33 | CCCCCCCCCCCNc1nc(NCCN(CC)CC)nc(SCCCCCCCCCCC)n1 [S11N11 D7] | 6.8%
34 | CCCCCCCCCCCNc1nc(NCCCN2CCOCC2)nc(SCCCCCCCCCCC)n1 [S11N11 D8] | 2.5%
35 | CCCCCCCCCCCNc1nc(NCCCN2CCN(C)CC2)nc(SCCCCCCCCCCC)n1 [S11N11 D9] | 4.9%
36 | CCCCCCCCCCCNc1nc(NCC2CCN(C)CC2)nc(SCCCCCCCCCCC)n1 [S11N11 D10] | 5.6%
37 | CCCCCCCCCCCCNc1nc(NCCN(C)C)nc(SCCCCCCCCCCC)n1 [S11N12 D1] | 16.2%
38 | CCCCCCCCCCCCNc1nc(NCCN2CCOCC2)nc(SCCCCCCCCCCC)n1 [S11N12 D2] | 3.1%
39 | CCCCCCCCCCCCNc1nc(NCCN2CCCC2)nc(SCCCCCCCCCCC)n1 [S11N12 D3] | 22.8%
40 | CCCCCCCCCCCCNc1nc(NCCN2CCCCC2)nc(SCCCCCCCCCCC)n1 [S11N12 D4] | 3.4%
41 | CCCCCCCCCCCCNc1nc(NCCN2CCN(C)CC2)nc(SCCCCCCCCCCC)n1 [S11N12 D5] | 14.1%
42 | CCCCCCCCCCCCNc1nc(NCCCN(C)C)nc(SCCCCCCCCCCC)n1 [S11N12 D6] | 18.8%
43 | CCCCCCCCCCCCNc1nc(NCCN(CC)CC)nc(SCCCCCCCCCCC)n1 [S11N12 D7] | 9.8%
44 | CCCCCCCCCCCCNc1nc(NCCCN2CCOCC2)nc(SCCCCCCCCCCC)n1 [S11N12 D8] | 1.5%
45 | CCCCCCCCCCCCNc1nc(NCCCN2CCN(C)CC2)nc(SCCCCCCCCCCC)n1 [S11N12 D9] | 5.9%
46 | CCCCCCCCCCCCNc1nc(NCC2CCN(C)CC2)nc(SCCCCCCCCCCC)n1 [S11N12 D10] | 4.7%
47 | CCCCCCCCCCCCCNc1nc(NCCN(C)C)nc(SCCCCCCCCCCC)n1 [S11N13 D1] | 10.6%
48 | CCCCCCCCCCCCCNc1nc(NCCN2CCOCC2)nc(SCCCCCCCCCCC)n1 [S11N13 D2] | 5.5%

Row | Structure (SMILES) | Absolute DNA transfection efficiency in HEK293 cells
49 | CCCCCCCCCCCCCNc1nc(NCCN2CCCC2)nc(SCCCCCCCCCCC)n1 [S11N13 D3] | 17.5%
50 | CCCCCCCCCCCCCNc1nc(NCCN2CCCCC2)nc(SCCCCCCCCCCC)n1 [S11N13 D4] | 3.5%
51 | CCCCCCCCCCCCCNc1nc(NCCN2CCN(C)CC2)nc(SCCCCCCCCCCC)n1 [S11N13 D5] | 8.4%
52 | CCCCCCCCCCCCCNc1nc(NCCCN(C)C)nc(SCCCCCCCCCCC)n1 [S11N13 D6] | 13.6%
53 | CCCCCCCCCCCCCNc1nc(NCCN(CC)CC)nc(SCCCCCCCCCCC)n1 [S11N13 D7] | 2.8%
54 | CCCCCCCCCCCCCNc1nc(NCCCN2CCOCC2)nc(SCCCCCCCCCCC)n1 [S11N13 D8] | 0.9%
55 | CCCCCCCCCCCCCNc1nc(NCCCN2CCN(C)CC2)nc(SCCCCCCCCCCC)n1 [S11N13 D9] | 4.9%
56 | CCCCCCCCCCCCCNc1nc(NCC2CCN(C)CC2)nc(SCCCCCCCCCCC)n1 [S11N13 D10] | 3.8%
57 | CCCCCCCCCCCCCCCNc1nc(NCCN(C)C)nc(SCCCCCCCCCCC)n1 [S11N15 D1] | 12.5%
58 | CCCCCCCCCCCCCCCNc1nc(NCCN2CCOCC2)nc(SCCCCCCCCCCC)n1 [S11N15 D2] | 1.3%
59 | CCCCCCCCCCCCCCCNc1nc(NCCN2CCCC2)nc(SCCCCCCCCCCC)n1 [S11N15 D3] | 24.5%
60 | CCCCCCCCCCCCCCCNc1nc(NCCN2CCCCC2)nc(SCCCCCCCCCCC)n1 [S11N15 D4] | 9.0%
61 | CCCCCCCCCCCCCCCNc1nc(NCCN2CCN(C)CC2)nc(SCCCCCCCCCCC)n1 [S11N15 D5] | 9.9%
62 | CCCCCCCCCCCCCCCNc1nc(NCCCN(C)C)nc(SCCCCCCCCCCC)n1 [S11N15 D6] | 8.2%
63 | CCCCCCCCCCCCCCCNc1nc(NCCN(CC)CC)nc(SCCCCCCCCCCC)n1 [S11N15 D7] | 5.2%
64 | CCCCCCCCCCCCCCCNc1nc(NCCCN2CCOCC2)nc(SCCCCCCCCCCC)n1 [S11N15 D8] | 0.1%
65 | CCCCCCCCCCCCCCCNc1nc(NCCCN2CCN(C)CC2)nc(SCCCCCCCCCCC)n1 [S11N15 D9] | 7.0%
66 | CCCCCCCCCCCCCCCNc1nc(NCC2CCN(C)CC2)nc(SCCCCCCCCCCC)n1 [S11N15 D10] | 7.0%
67 | CCCCCCCCCCCCCCCCNc1nc(NCCN(C)C)nc(SCCCCCCCCCCC)n1 [S11N16 D1] | 8.2%
68 | CCCCCCCCCCCCCCCCNc1nc(NCCN2CCOCC2)nc(SCCCCCCCCCCC)n1 [S11N16 D2] | 3.5%
69 | CCCCCCCCCCCCCCCCNc1nc(NCCN2CCCC2)nc(SCCCCCCCCCCC)n1 [S11N16 D3] | 13.8%
70 | CCCCCCCCCCCCCCCCNc1nc(NCCN2CCCCC2)nc(SCCCCCCCCCCC)n1 [S11N16 D4] | 4.4%
71 | CCCCCCCCCCCCCCCCNc1nc(NCCN2CCN(C)CC2)nc(SCCCCCCCCCCC)n1 [S11N16 D5] | 6.8%
72 | CCCCCCCCCCCCCCCCNc1nc(NCCCN(C)C)nc(SCCCCCCCCCCC)n1 [S11N16 D6] | 5.7%

— patent publication US20230123334A1, “AMINO LIPID COMPOUND, PREPARATION METHOD THEREFOR, AND APPLICATION THEREOF” (SHENZHEN SHENXIN BIOTECHNOLOGY CO., LTD., priority 2020, published 2023)
